Data set [1] is described as follows: Human pharmacokinetic study, urine (DART TOF-MS). It counts as in vivo. As to the method: (§1) Cranberry extracts 5 and 6 were prepared by HerbalScience Singapore Pte. Ltd. and prepared as 150-mg and 140-mg capsules, respectively. Each pharmacokinetic study (1 per extract) consisted of five healthy consenting adults ranging in age from 25 to 50 were instructed not to consume foods rich in phenolics 24 hours prior to the initiation of the study. A certified individual collected urine samples at several time intervals between 0 and 480 minutes after two capsules of a cranberry extract were ingested immediately after the time zero time point. Blood samples were handled with approved protocols and precautions, centrifuged to remove cells and the serum fraction was collected and frozen. Blood was not treated with heparin to avoid any analytical interference. Serum samples were stored frozen at −20° C. until analysis. The serum was extracted with an equal volume of neat ethanol (USP) to minimize background of proteins, peptides, and polysaccharides present in serum. The ethanol extract was centrifuged at 9300×g for 10 minutes at 4° C., the supernatant was removed, concentrated to 200 μL volume which was then used for DART TOF-MS analyses (FIG. 10). Urine samples were handled with approved protocols and precautions and frozen. Serum samples were stored frozen until analysis. The urine samples were analyzed neat by DART TOF-MS (FIGS. 11 and 12).

Data set [2] is described as follows: Human pharmacokinetic study, serum (DART TOF-MS). It counts as in vivo. The conditions noted are these: 5 healthy adults, Extract 5 300 mg oral. As to the method: as §1

Where only a bound is given, the exact number is not on record here.

On to `O=CC=Cc1ccccc1` [cinnamaldehyde], for which, in data set [1] (human, in vivo, po), the “time of appearance in urine” value was no more than 1 h and the “time through which urine levels increased (declined thereafter)” value was 2 h. Besides, in data set [1] (in vivo, po), the “presence in urine at 8 hours post-ingestion” value (from here on “presence in urine”) is reported as “still present”.
In the case of `c1ccc(-c2cc3ccccc3[nH]2)cc1` [α-phenylindol], in data set [1] (in vivo, po), the “presence in urine” value is “still present”, the “time of appearance in urine” value was no more than 1 h and the “time through which urine levels increased (declined thereafter)” value was 2 h.
Turning to S-petasine, in data set [2], the “time after which undetectable in serum” value was determined as 180 min and the “time through which serum levels increased (declined thereafter)” value is “about 40 minutes”. Besides, in data set [1] (two vegcaps Extract 6 oral), the “time through which urine levels increased (declined thereafter)” value worked out at 2 h.
Regarding `COc1ccc(C2COc3cc(O)ccc3C2)c(O)c1` (stereo not shown) [vestitol], in data set [1] (in vivo, po), the “presence in urine” value is reported as “still present”, the “time of appearance in urine” value is no more than 1 h and the “time through which urine levels increased (declined thereafter)” value was 2 h.
`O=C(O)c1ccc(O)cc1` [4-hydroxybenzoic acid]: in data set [1] (human, in vivo, po), the “time of appearance in urine” value was no more than 1 h and the “time through which urine levels increased (declined thereafter)” value was found to be 2 h. Besides, the “presence in urine” value in data set [1] (in vivo, po) is recorded as “still present”.
On to `CC1=CC(=O)CC(C)(C)[C@@]1(O)/C=C/C(C)=C\C(=O)O` [abscisic acid], for which, in data set [2], the “time after which undetectable in serum” value turned out to be 180 min and the “time through which serum levels increased (declined thereafter)” value is given as “about 40 minutes”. Besides, in data set [1] (Extract 5 300 mg oral), the “abundance in urine relative to other bioactives” value was “most abundant” and the “time of peak level in urine” value was 2 h. In data set [1] (two vegcaps Extract 6 oral), the “presence in urine” value was “still present” and the “time through which urine levels increased (declined thereafter)” value amounted to 2 h.
Take `NCC(=O)CCC(=O)O` [aminolevulenic acid]: in data set [1] (in vivo, po), the “time of appearance in urine” value was no more than 1 h and the “time through which urine levels increased (declined thereafter)” value was determined as 2 h.
For the molecule `C[C@@H](O)[C@H](N)C(=O)O` [L-threonine], in data set [1] (human, in vivo, po), the “time of appearance in urine” value was no more than 1 h and the “time through which urine levels increased (declined thereafter)” value worked out at 2 h.
On to chitosan, for which, in data set [1] (in vivo, po), the “presence in urine” value is given as “still present”, the “time of appearance in urine” value was no more than 1 h and the “time through which urine levels increased (declined thereafter)” value stood at 2 h.

(Values after patent US20100028469A1, “Extracts of Cranberry and Methods of Using Thereof” (priority 2008, published 2010).)
